Experimental data as given in patent publication US11319307B2, “2,3-dihydrobenzohurans as bromodomain inhibitors” (GLAXOSMITHKLINE INTELLECTUAL PROPERTY (NO.2) LIMITED, priority 2017, dated 2022).

System: BET family (BRD2, BRD3, BRD4 and BRDT) single and double mutant tandem domain proteins
Assay: Fluorescence Polarisation binding of Reference Compound X to mutant tandem BET proteins
Parameters: species or system Human
Protocol: The competition of the compounds of formula (I) with Reference Compound X for binding to the BET family (BRD2, BRD3, BRD4 and BRDT) was assessed using protein truncates spanning both bromodomain 1 (BD1) and bromodomain 2 (BD2). In order to monitor differential binding to either BD1 or BD2, single residue mutations of key tyrosines to alanine were made in the acetyl lysine binding pockets. To validate this approach, a double residue mutant tandem domain protein was produced for each of the BET family members. Utilising a Fluorescence Polarisation approach, binding affinities for each of the single and double mutants for Reference Compound X were determined. […] The affinities of the single mutated bromdomain tandem proteins for Reference Compound X were equi-potent with the corresponding non-mutated BET protein. […] In the TR-FRET competition assay, Reference Compound X is used at a concentration that is equivalent to the Kd for the non-mutated bromodomain, which ensures that no binding at the mutated bromodomain is detected. […]

For `COc1ccc2c(c1)C(c1ccc(Cl)cc1)=N[C@@H](CC(=O)NCCCCCNC(=O)CCCCCC1(C)/C(=C/C=C/C=C/C3=[N+](CCCCS(=O)(=O)O)c4ccc(S(=O)(=O)O)cc4C3(C)C)N(CCCCS(=O)(=O)[O-])c3ccc(S(=O)(=O)O)cc31)c1nnc(C)n1-2` (some centres unmarked) [Reference Compound X], the “reduction in Kd (affinity for Reference Compound X)” value (double mutant tandem proteins versus non mutated, wild type tandem BET proteins) was over 1000 fold and the “reduction of the Kd of the interaction between the mutated bromodomain and Reference Compound X” value (single mutations of Tyrosine to Alanine) was over 1000 fold.
